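A five-concentration, 48-hour dose response in 96-well plates underlies each endpoint, interpolated linearly between surrounding concentrations. GI50 marks 50% less growth. TGI: concentration producing complete growth inhibition.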
Tests used:
Assay in all cases: NCI anticancer screen, dose series, 48 h
SK-OV-3 ovarian = test system: SK-OV-3 ovarian
SK-MEL-2 melanoma = test system: SK-MEL-2 melanoma
M14 melanoma = test system: M14 melanoma
NCI-H23 lung = test system: NCI-H23 lung
UACC-62 melanoma = test system: UACC-62 melanoma
ACHN renal = test system: ACHN renal
KM12 colon = test system: KM12 colon
SK-MEL-28 melanoma = test system: SK-MEL-28 melanoma
UACC-257 melanoma = test system: UACC-257 melanoma
SNB-75 CNS = test system: SNB-75 CNS
RXF 393 renal = test system: RXF 393 renal
HOP-62 NSCLC = test system: HOP-62 NSCLC
HCC-2998 colon = test system: HCC-2998 colon
OVCAR-8 ovarian = test system: OVCAR-8 ovarian
NCI-H226 lung = test system: NCI-H226 lung
SN12C renal = test system: SN12C renal
HL-60(TB) leukemia = test system: HL-60(TB) leukemia
RPMI-8226 leukemia = test system: RPMI-8226 leukemia
MCF7 breast = test system: MCF7 breast
T-47D breast = test system: T-47D breast
TK-10 renal = test system: TK-10 renal
CCRF-CEM leukemia = test system: CCRF-CEM leukemia
SR leukemia = test system: SR leukemia
HOP-92 NSCLC = test system: HOP-92 NSCLC
DU-145 prostate = test system: DU-145 prostate
NCI-H522 lung = test system: NCI-H522 lung
NCI/ADR-RES ovarian = test system: NCI/ADR-RES ovarian
SF-295 CNS = test system: SF-295 CNS
COLO 205 colon = test system: COLO 205 colon
SF-268 CNS = test system: SF-268 CNS
U251 CNS = test system: U251 CNS
HCT-116 colon = test system: HCT-116 colon
BT-549 breast = test system: BT-549 breast
K-562 leukemia = test system: K-562 leukemia
PC-3 prostate = test system: PC-3 prostate
SK-MEL-5 melanoma = test system: SK-MEL-5 melanoma
NCI-H460 lung = test system: NCI-H460 lung
MDA-MB-231 breast = test system: MDA-MB-231 breast
LOX IMVI melanoma = test system: LOX IMVI melanoma
SW-620 colon = test system: SW-620 colon
OVCAR-3 ovarian = test system: OVCAR-3 ovarian
UO-31 renal = test system: UO-31 renal
HCT-15 colon = test system: HCT-15 colon
EKVX NSCLC = test system: EKVX NSCLC
SF-539 CNS = test system: SF-539 CNS
MALME-3M melanoma = test system: MALME-3M melanoma
SNB-19 CNS = test system: SNB-19 CNS
MOLT-4 leukemia = test system: MOLT-4 leukemia
786-0 renal = test system: 786-0 renal
MDA-MB-435 = test system: MDA-MB-435
HS 578T breast = test system: HS 578T breast
OVCAR-4 ovarian = test system: OVCAR-4 ovarian
A498 renal = test system: A498 renal
OVCAR-5 ovarian = test system: OVCAR-5 ovarian
IGROV1 ovarian = test system: IGROV1 ovarian
HT29 colon = test system: HT29 colon
A549 NSCLC = test system: A549 NSCLC
CAKI-1 renal = test system: CAKI-1 renal

Compound `CCO/C=N/C1=C(C#N)C(c2ccc(OC)cc2)c2sc3c(CC)cccc3c2O1` (stereo unspecified) has a GI50 (SK-OV-3 ovarian) of 5.3 µM, a TGI (SK-OV-3 ovarian) of 20.9 µM and a GI50 (SK-MEL-2 melanoma) of 5.76 µM. The TGI (SK-MEL-2 melanoma) was 22.7 µM, the GI50 (M14 melanoma) was 1.5 µM and the TGI (M14 melanoma) was 11.8 µM. It also gave a GI50 (NCI-H23 lung) of 3.09 µM, a TGI (NCI-H23 lung) of 16.4 µM and a GI50 (UACC-62 melanoma) of 1.04 µM. The TGI (UACC-62 melanoma) was 18.4 µM, the GI50 (ACHN renal) was 3.36 µM and the TGI (ACHN renal) was 17.2 µM. It also gave a GI50 (KM12 colon) of 2.63 µM, a TGI (KM12 colon) of 21.7 µM and a GI50 (SK-MEL-28 melanoma) of 7.74 µM. For the same compound, the TGI (SK-MEL-28 melanoma) was 25 µM, the GI50 (UACC-257 melanoma) was 13.1 µM and the TGI (UACC-257 melanoma) was 38.2 µM. The GI50 (SNB-75 CNS) was 0.366 µM, the TGI (SNB-75 CNS) was 4.02 µM and the GI50 (RXF 393 renal) was 1.72 µM. For the same compound, the TGI (RXF 393 renal) was 4.83 µM, the GI50 (HOP-62 NSCLC) was 5.63 µM and the TGI (HOP-62 NSCLC) was 22.4 µM. It also gave a GI50 (HCC-2998 colon) of 2.01 µM, a TGI (HCC-2998 colon) of 5.98 µM and a GI50 (OVCAR-8 ovarian) of 3.24 µM. For the same compound, the TGI (OVCAR-8 ovarian) was 18 µM, the GI50 (NCI-H226 lung) was 6.65 µM and the TGI (NCI-H226 lung) was 25.4 µM. For the same compound, the GI50 (SN12C renal) was 3.73 µM, the TGI (SN12C renal) was 18.1 µM and the GI50 (HL-60(TB) leukemia) was 1.92 µM. The TGI (HL-60(TB) leukemia) was 14.5 µM, the GI50 (RPMI-8226 leukemia) was 2.74 µM and the TGI (RPMI-8226 leukemia) was 11.8 µM. The GI50 (MCF7 breast) was 1.25 µM, the TGI (MCF7 breast) was 13 µM and the GI50 (T-47D breast) was 3.13 µM. The TGI (T-47D breast) was 15.8 µM, the GI50 (TK-10 renal) was 9.77 µM and the TGI (TK-10 renal) was 24.2 µM. The GI50 (CCRF-CEM leukemia) was 1.23 µM, the TGI (CCRF-CEM leukemia) was 20.8 µM and the GI50 (SR leukemia) was 0.821 µM. The TGI (SR leukemia) was 25 µM, the GI50 (HOP-92 NSCLC) was 1.67 µM and the TGI (HOP-92 NSCLC) was 16.7 µM. The GI50 (DU-145 prostate) was 3.55 µM, the TGI (DU-145 prostate) was 14.9 µM and the GI50 (NCI-H522 lung) was 1.18 µM. The TGI (NCI-H522 lung) was 6.01 µM, the GI50 (NCI/ADR-RES ovarian) was 0.566 µM and the TGI (NCI/ADR-RES ovarian) was 13.9 µM. For the same compound, the GI50 (SF-295 CNS) was 0.475 µM, the TGI (SF-295 CNS) was 1.96 µM and the GI50 (COLO 205 colon) was 3.52 µM. For the same compound, the TGI (COLO 205 colon) was 12.9 µM, the GI50 (SF-268 CNS) was 7.49 µM and the TGI (SF-268 CNS) was 29.2 µM. For the same compound, the GI50 (U251 CNS) was 3.77 µM, the TGI (U251 CNS) was 16.3 µM and the GI50 (HCT-116 colon) was 1.03 µM. The TGI (HCT-116 colon) was 11.7 µM, the GI50 (BT-549 breast) was 4.56 µM and the TGI (BT-549 breast) was 19.4 µM. The GI50 (K-562 leukemia) was 0.678 µM, the TGI (K-562 leukemia) was 30.8 µM and the GI50 (PC-3 prostate) was 1.5 µM. The TGI (PC-3 prostate) was 12.6 µM, the GI50 (SK-MEL-5 melanoma) was 4.86 µM and the TGI (SK-MEL-5 melanoma) was 17 µM. The GI50 (NCI-H460 lung) was 3.46 µM, the TGI (NCI-H460 lung) was 12.8 µM and the GI50 (MDA-MB-231 breast) was 4.05 µM. The TGI (MDA-MB-231 breast) was 24.1 µM, the GI50 (LOX IMVI melanoma) was 2.31 µM and the TGI (LOX IMVI melanoma) was 14.5 µM. The GI50 (SW-620 colon) was 1.45 µM, the TGI (SW-620 colon) was 16.4 µM and the GI50 (OVCAR-3 ovarian) was 3.59 µM. It also gave a TGI (OVCAR-3 ovarian) of 18.1 µM, a GI50 (UO-31 renal) of 3.29 µM and a TGI (UO-31 renal) of 16.1 µM. It also gave a GI50 (HCT-15 colon) of 0.92 µM, a TGI (HCT-15 colon) of 10.4 µM and a GI50 (EKVX NSCLC) of 3.47 µM. It also gave a TGI (EKVX NSCLC) of 17.3 µM, a GI50 (SF-539 CNS) of 1.75 µM and a TGI (SF-539 CNS) of 4.5 µM. The GI50 (MALME-3M melanoma) was 10.9 µM, the TGI (MALME-3M melanoma) was 25 µM and the GI50 (SNB-19 CNS) was 3.35 µM. For the same compound, the TGI (SNB-19 CNS) was 15.5 µM, the GI50 (MOLT-4 leukemia) was 3.28 µM and the TGI (MOLT-4 leukemia) was 26.2 µM. It also gave a GI50 (786-0 renal) of 3.06 µM, a TGI (786-0 renal) of 17.5 µM and a GI50 (MDA-MB-435) of 0.373 µM. For the same compound, the TGI (MDA-MB-435) was 1.51 µM, the GI50 (HS 578T breast) was 2.3 µM and the TGI (HS 578T breast) was 9.55 µM. The GI50 (OVCAR-4 ovarian) was 4.26 µM, the TGI (OVCAR-4 ovarian) was 16.3 µM and the GI50 (A498 renal) was 0.472 µM. The TGI (A498 renal) was 7.6 µM, the GI50 (OVCAR-5 ovarian) was 5.19 µM and the TGI (OVCAR-5 ovarian) was 18.4 µM. It also gave a GI50 (IGROV1 ovarian) of 1.53 µM, a TGI (IGROV1 ovarian) of 17.5 µM and a GI50 (HT29 colon) of 3.22 µM. The TGI (HT29 colon) was 11.6 µM, the GI50 (A549 NSCLC) was 2.59 µM and the TGI (A549 NSCLC) was 34.1 µM. The GI50 (CAKI-1 renal) was 1.9 µM and the TGI (CAKI-1 renal) was 19.3 µM.

Source: PubChem BioAssay (NCI)
